For the assay, the system named is Plasmodium berghei. Put plainly: Luciferase/luciferin-expressing antifolate-resistant parasites were used to infect a culture of HepG2 cells that were pre-incubated with compounds. Infected hepatocytes emit light due to the luciferase reaction. Assay results are presented as the percent inhibition of light emission compared to control. […]. The class given is functional. The conditions noted are these: sporozoite; for IC90: read-out: LUCIFERASE INFECTION ASSAY - IC90.

Where [1] appears, read: read-out: LUCIFERASE INFECTION ASSAY - IC50.

For `COc1ccc(NC(=O)c2cc(-c3ccccc3)n(-c3ccccc3)c2C)cc1`, the IC90 – broadly, the point of the concentration-response curve where the effect stands at 90% – was found to be 4.38 µM. The IC50 (usually the midpoint of a concentration-inhibition curve) (HEPG2TOX_HILL_SLOPE 0.976, HEPG2TOX_R_SQUARED 0.937, PBLUC_HILL_SLOPE 1.32, PBLUC_R_SQUARED 0.59, read-out: LUCIFERASE INFECTION ASSAY - IC50) worked out at 0.834 µM.
In the case of `N#CC(C#N)=Cc1c(-c2ccc(Cl)cc2)[nH]c2ccccc12`, the IC90 turned out to be 1.39 µM. In addition, the IC50 (HEPG2TOX_HILL_SLOPE 0.752, HEPG2TOX_R_SQUARED 0.846, PBLUC_HILL_SLOPE 1.54, PBLUC_R_SQUARED 0.775, read-out: LUCIFERASE INFECTION ASSAY - IC50) came out at 0.332 µM.
As to `CCN1C/C(=C/c2ccc(NC(C)=O)cc2)C(=O)/C(=C/c2ccc(NC(C)=O)cc2)C1`, the IC90 was > 10 µM. Moreover, the IC50 under setting [1] was > 10 µM.
On to `COc1cccc(CN2CCC2(C)C(=O)Nc2cccc(Oc3ccccc3)c2)c1F` (centres undefined), for which the IC90 was > 7.85 µM. In addition, the IC50 (HEPG2TOX_HILL_SLOPE 2.25, HEPG2TOX_R_SQUARED 0.907, PBLUC_HILL_SLOPE 3.39, PBLUC_R_SQUARED 0.419, read-out: LUCIFERASE INFECTION ASSAY - IC50) is 5.73 µM.
On to `CCn1c2ccccc2c2cc([N+](=O)[O-])ccc21`, for which the IC90 was > 13.7 µM. Also, the IC50 (HEPG2TOX_HILL_SLOPE 12, HEPG2TOX_R_SQUARED 0.261, PBLUC_HILL_SLOPE 16.8, PBLUC_R_SQUARED 0.0444, read-out: LUCIFERASE INFECTION ASSAY - IC50) was 13.7 µM.
Regarding `CCN(CC)S(=O)(=O)c1ccc2nnc(Sc3nc(C)nc4sc5c(c34)CCCC5)n2c1`, the concentration for an effect of 90% (IC90) is > 10 µM. In addition, under setting [1], the IC50 is > 10 µM.
As for `O=C(Nc1cc(Cl)cc(Cl)c1)c1ccccc1O`, the IC90 came out at 4.44 µM. The IC50 under setting [1] came out at 3.79 µM.
Turning to `CCCCc1[nH]nc2ccnc(-c3ccsc3)c12`, the IC90 was > 10 µM. Moreover, under setting [1], the IC50 was > 10 µM.
For `CCOC(=O)c1c(C)[nH]c(C(=O)C(C)OC(=O)c2ccc(S(=O)(=O)N(C)c3ccccc3OC)cc2)c1C` (centres undefined), the IC90 is > 10 µM. In addition, the half-maximal inhibitory concentration (IC50) (HEPG2TOX_HILL_SLOPE 113, HEPG2TOX_R_SQUARED 0.62, read-out: LUCIFERASE INFECTION ASSAY - IC50) was > 10 µM.
With `CC1(C(=O)NCc2cccs2)Cc2c(-c3ccccc3)ccnc2O1` (centres undefined), the 90% effect concentration (IC90) was > 9.42 µM. In addition, for the setting “FFLUC_HILL_SLOPE 0.144, FFLUC_R_SQUARED 0.18, HEPG2TOX_HILL_SLOPE 3.88, HEPG2TOX_R_SQUARED 0.701, PBLUC_HILL_SLOPE 8.35, PBLUC_R_SQUARED 0.0479, read-out: LUCIFERASE INFECTION ASSAY - IC50”, the half-maximal inhibitory concentration (IC50) came to 7.82 µM.
`O=C(Nc1nc2ccccc2[nH]1)C(Sc1ccccc1)c1ccccc1` (centres undefined): the IC90 is > 10 µM. Further, the IC50 under setting [1] was > 10 µM.
Turning to `COc1ccc(-c2nc3ccnc(NCc4ccc(Cl)cc4)c3[nH]2)cc1`, the IC90 is 4.74 µM. The IC50 (PBLUC_HILL_SLOPE 2.99, PBLUC_R_SQUARED 0.272, read-out: LUCIFERASE INFECTION ASSAY - IC50) is 2.27 µM.
As for `COc1cc(/C=C/C(=O)c2ccc(Cl)c([N+](=O)[O-])c2)ccc1OC(F)F`, the IC90 was > 10 µM. The IC50 under setting [1] is > 10 µM.
For `Cc1ccc(-c2cc(C(=O)NNC(=O)CC34CC5CC(CC(C5)C3)C4)c3ccccc3n2)cc1`, the IC90 was > 10 µM. In addition, under setting [1], the half-inhibitory concentration (IC50) is > 10 µM.
As to `CCn1nc(C(=O)OCC(=O)Nc2cc(S(=O)(=O)N3CCCCC3)ccc2Cl)c2ccccc2c1=O`, the IC90 was > 10 µM. In addition, the IC50 under setting [1] was > 10 µM.
Regarding `Nc1c(C(=O)Nc2cc(Cl)cc(Cl)c2)sc(Nc2ccccc2)c1C(=O)Nc1ccc(Cl)cc1`, the IC90 is > 10 µM. Moreover, where the note is “FFLUC_HILL_SLOPE 1.81, FFLUC_R_SQUARED 0.586, read-out: LUCIFERASE INFECTION ASSAY - IC50”, the IC50 was > 10 µM.
Regarding `CC(C)(C(=O)Nc1ccon1)n1cc(-c2ccc(OCCN3CCCC3)cc2)cn1`, the concentration for an effect of 90% (IC90) was > 10 µM. Under setting [1], the IC50 is > 10 µM.
Take `Cc1ccc(S(=O)(=O)n2c3ccc(Cl)cc3c3nc(C)sc32)cc1`: the concentration for an effect of 90% (IC90) was > 8.76 µM. The half-maximal inhibitory concentration (IC50) (FFLUC_HILL_SLOPE 13.1, FFLUC_R_SQUARED 0.689, read-out: LUCIFERASE INFECTION ASSAY - IC50) was > 8.76 µM.
Regarding `C=CCn1c(SCC(=O)c2cc(C)n(CC3CCCO3)c2C)nc2scc(-c3ccc(C)cc3)c2c1=O` (centres undefined), the IC90 was > 10 µM. The concentration for half-maximal inhibition (IC50) (FFLUC_HILL_SLOPE 2.53, FFLUC_R_SQUARED 0.599, read-out: LUCIFERASE INFECTION ASSAY - IC50) is > 10 µM.
Take `CCn1c(SCC(=O)N2N=C(c3ccco3)CC2c2ccco2)nc2ccsc2c1=O` (centres undefined): the IC90 is > 10 µM. The IC50 (FFLUC_HILL_SLOPE 1.6, FFLUC_R_SQUARED 0.281, read-out: LUCIFERASE INFECTION ASSAY - IC50) is > 10 µM.
Consider `Cc1ccc(COC(=O)c2c(Cl)nc3sccn23)cc1`, for which the IC90 turned out to be 0.397 µM. Further, where the note is “FFLUC_HILL_SLOPE 1.77, FFLUC_R_SQUARED 0.868, HEPG2TOX_HILL_SLOPE 1.9, HEPG2TOX_R_SQUARED 0.904, PBLUC_HILL_SLOPE 1.95, PBLUC_R_SQUARED 0.73, read-out: LUCIFERASE INFECTION ASSAY - IC50”, the 50% inhibitory concentration (IC50) stood at 0.129 µM.
Regarding `O=C(CCc1cccnc1)Nc1nc(-c2ccc3c(c2)OCCO3)cs1`, the concentration for an effect of 90% (IC90) is > 10 µM. Also, the IC50 under setting [1] is > 10 µM.
As to `COc1ccc(NC(=O)c2ccc(O)nc2)cc1S(=O)(=O)N1CCOCC1`, the IC90 is > 10 µM. Besides, the IC50 under setting [1] was > 10 µM.
As for `COc1ccc(C2CCCCCN2C(=O)c2csc(-c3ccsc3)n2)cc1` (centres undefined), the IC90 was > 10 µM. In addition, the concentration for half-maximal inhibition (IC50) (HEPG2TOX_HILL_SLOPE 2.14, HEPG2TOX_R_SQUARED 0.977, PBLUC_HILL_SLOPE 2.8, PBLUC_R_SQUARED 0.0937, read-out: LUCIFERASE INFECTION ASSAY - IC50) was 5.38 µM.
For `Cc1ccc(/N=C/c2c(-c3ccccc3Cl)[nH]c3ccccc23)cc1C`, the IC90 worked out at 4.13 µM. Moreover, the IC50 (HEPG2TOX_HILL_SLOPE 1.53, HEPG2TOX_R_SQUARED 0.955, PBLUC_HILL_SLOPE 2.45, PBLUC_R_SQUARED 0.607, read-out: LUCIFERASE INFECTION ASSAY - IC50) was 1.68 µM.
Turning to `CC(=O)NCc1ccc(-c2csc(NC(=O)CCc3ccco3)n2)cc1`, the IC90 was > 10 µM. Also, under setting [1], the 50% inhibitory concentration (IC50) was > 10 µM.
For `COc1cc(/C=C(/C(=O)Nc2ccc(Cl)cc2)c2nc3ccccc3s2)ccc1OC(F)F`, the IC90 came out at 3.33 µM. Under “FFLUC_HILL_SLOPE 4.93, FFLUC_R_SQUARED 0.384, HEPG2TOX_HILL_SLOPE 14.8, HEPG2TOX_R_SQUARED 0.909, PBLUC_HILL_SLOPE 5.39, PBLUC_R_SQUARED 0.576, read-out: LUCIFERASE INFECTION ASSAY - IC50”, the IC50 stood at 2.21 µM.
For the compound `O=c1c2ccccc2nc(Sc2ccc([N+](=O)[O-])c(C(F)(F)F)c2)n1-c1ccc(OC(F)F)cc1`, the IC90 is > 10 µM. Also, the IC50 under setting [1] was > 10 µM.
Regarding `CC(=O)NCCc1ccc(C(=O)Cn2cnc3ccc(Cl)cc3c2=O)s1`, the IC90 was > 10 µM. Besides, the IC50 under setting [1] was > 10 µM.
For the compound `COc1cc2c(cc1OCC(=O)Nc1ccccc1Cl)C=CC(C)(C)O2`, the IC90 was > 8.83 µM. The IC50 (PBLUC_HILL_SLOPE 1.25, PBLUC_R_SQUARED 0.511, read-out: LUCIFERASE INFECTION ASSAY - IC50) worked out at 4.17 µM.
As to `Cc1ccc(O)c(C(=O)c2cn/c(=N\c3ccccc3)n(-c3ccccc3)c2)c1`, the IC90 turned out to be 4.08 µM. The IC50 (PBLUC_HILL_SLOPE 10.6, PBLUC_R_SQUARED 0.86, read-out: LUCIFERASE INFECTION ASSAY - IC50) was determined as 3.32 µM.
On to `COc1cccc(Nc2nccc3c2cc(-c2cccc(OC)c2)n3C)c1`, for which the IC90 was > 10 µM. In addition, the IC50 (PBLUC_HILL_SLOPE 0.902, PBLUC_R_SQUARED 0.605, read-out: LUCIFERASE INFECTION ASSAY - IC50) worked out at 2.59 µM.
As to `Cc1ccccc1NC(=O)c1cc2ccccc2c(CN2CCC3(CC2)OCCO3)c1O`, the IC90 was 1.28 µM. In addition, the IC50 (FFLUC_HILL_SLOPE 10.9, FFLUC_R_SQUARED 0.858, HEPG2TOX_HILL_SLOPE 2.82, HEPG2TOX_R_SQUARED 0.87, PBLUC_HILL_SLOPE 1.78, PBLUC_R_SQUARED 0.84, read-out: LUCIFERASE INFECTION ASSAY - IC50) was found to be 0.373 µM.
For the compound `CCN(c1ccc(NC(=O)c2ccc3c(c2)NC(=O)CS3)cc1)C(C)C`, the IC90 worked out at 3.68 µM. Also, the IC50 (HEPG2TOX_HILL_SLOPE 14.6, HEPG2TOX_R_SQUARED 0.71, PBLUC_HILL_SLOPE 18.6, PBLUC_R_SQUARED 0.967, read-out: LUCIFERASE INFECTION ASSAY - IC50) turned out to be 3.27 µM.
Consider `COc1cc(-c2cnc3cnc(-c4ccccc4C)cn23)ccc1O`, for which the IC90 came to 5.32 µM. The IC50 (FFLUC_HILL_SLOPE 9.6, FFLUC_R_SQUARED 0.0922, HEPG2TOX_HILL_SLOPE 3.65, HEPG2TOX_R_SQUARED 0.847, PBLUC_HILL_SLOPE 7.45, PBLUC_R_SQUARED 0.397, read-out: LUCIFERASE INFECTION ASSAY - IC50) worked out at 3.96 µM.
For the compound `Cn1cc(-c2cnc3cnc(-c4ccncc4)cn23)cn1`, the IC90 is > 11.9 µM. Besides, the IC50 (HEPG2TOX_HILL_SLOPE 1.93, HEPG2TOX_R_SQUARED 0.473, PBLUC_HILL_SLOPE 0.98, PBLUC_R_SQUARED 0.306, read-out: LUCIFERASE INFECTION ASSAY - IC50) came to 10.1 µM.
`C=CCn1c2ccccc2n2nc(C)c(C(=O)/C=C/c3ccccn3)c12`: the IC90 was found to be 4.04 µM. Also, the IC50 (PBLUC_HILL_SLOPE 13.1, PBLUC_R_SQUARED 0.157, read-out: LUCIFERASE INFECTION ASSAY - IC50) was 3.42 µM.

(Values after ChEMBL document CHEMBL4483862, “Open-source discovery of chemical leads for next-generation chemoprotective antimalarials” (2018).)
